One block for each molecule: values may come before it.
Key:
[1] = system: Cy5-hTERT-FL (DNA, G4) GGGGAGGGGCTGGGAGGGCCCGGAGGGGGCTGGGCCGGGGACCCGGGAGGGGTCGGGACGGGGCGGGG; assay: microscale thermophoresis; settings: 25 mM KCl, pH 7.2, 1.5% DMSO
[2] = system: PQS23 (FRET-labelled) (DNA, G4) AGGGGGCTGGGCCGGGGACCCGGGAGGGGTCGGGACGGGGCGGGG; assay: fluorescence thermal shift assay; settings: 100 μM compound, 0.5 μM DNA, phosphate buffer
[3] = system: Ctrl HP (FRET-labelled) (DNA, hairpin) GCATGCTTTTGCATGC; assay: fluorescence thermal shift assay; settings: 100 μM compound, 0.5 μM DNA, phosphate buffer
[4] = system: TERT-FL (hTERT-FL) (DNA, G4) GGGGAGGGGCTGGGAGGGCCCGGAGGGGGCTGGGCCGGGGACCCGGGAGGGGTCGGGACGGGGCGGGG; assay: CD melting, 260 nm; settings: 20 mM KCl; 25 μM compound, 1.1 μM DNA
[5] = system: TERT-FL (hTERT-FL) (DNA, G4) GGGGAGGGGCTGGGAGGGCCCGGAGGGGGCTGGGCCGGGGACCCGGGAGGGGTCGGGACGGGGCGGGG; assay: competition dialysis; settings: 185 mM K+, phosphate buffer, RT, 5 μM compound, 75 μM DNA as tetrads, per tetrad, per base
[6] = system: AT duplex (DNA, hairpin) ATATATATATCCCCATATATATAT; assay: competition dialysis; settings: 185 mM K+, phosphate buffer, RT, 5 μM compound, 75 μM DNA as base pairs, per base pair
[7] = system: GC duplex (DNA, hairpin) GCGCGCGCGCTTTTGCGCGCGCGC; assay: competition dialysis; settings: 185 mM K+, phosphate buffer, RT, 5 μM compound, 75 μM DNA as base pairs, per base pair
[8] = system: c-Myc G4 (DNA, G4) TGAGGGTGGGTAGGGTGGGTAA; assay: competition dialysis; settings: 185 mM K+, phosphate buffer, RT, 5 μM compound, 75 μM DNA as tetrads, per tetrad, per base
[9] = system: H-Tel G4 (DNA, G4) AGGGTTAGGGTTAGGGTTAGGG; assay: competition dialysis; settings: 185 mM K+, phosphate buffer, RT, 5 μM compound, 75 μM DNA as tetrads, per tetrad, per base
[10] = system: GC Triplex (DNA, triplex) CCCCCCCCTTTTGGGGGGGGTTTTCCCCCCCC; assay: competition dialysis; settings: 185 mM K+, phosphate buffer, RT, 5 μM compound, 75 μM DNA as triplets, per triplet, per base
[11] = system: PQS12 (DNA, G4) AGGGGAGGGGCTGGGAGGGCCCGGAGGGGGCTGGGCCGGGGACCCGGGA; assay: competition dialysis; settings: 185 mM K+; phosphate buffer, RT, 5 μM compound, 75 μM DNA as tetrads
[12] = system: PQS23 (DNA, G4) AGGGGGCTGGGCCGGGGACCCGGGAGGGGTCGGGACGGGGCGGGG; assay: competition dialysis; settings: 185 mM K+; phosphate buffer, RT, 5 μM compound, 75 μM DNA as tetrads
[13] = system: PQS12 (FRET-labelled) (DNA, G4) AGGGGAGGGGCTGGGAGGGCCCGGAGGGGGCTGGGCCGGGGACCCGGGA; assay: fluorescence thermal shift assay; settings: 100 mM K+; 100 μM compound, 0.5 μM DNA, phosphate buffer

Kd ([1]; BPEK buffer (8 mM sodium phosphate, 1 mM EDTA), 20 nM DNA): 3 µM
binding ([2]; K+ (concentration not stated)): yes
binding ([3]; K+ (concentration not stated)): no
SMILES: CCOc1ccccc1CCNc1nc(CCN)nc2ccccc12

binding ([1]; BPEK buffer, up to 200 μM, no reliable fit): no
SMILES: CN(CCc1ccccc1)c1nc(-c2ccc(F)cc2)nc2ccccc12

binding [4]: yes
apparent Kd [5]: 24 µM
apparent Kd [6]: > 140 µM
apparent Kd [7]: > 140 µM
apparent Kd [8]: > 140 µM
apparent Kd [9]: > 140 µM
apparent Kd [10]: > 140 µM
binding [11]: yes
binding [12]: yes
Kd ([1]; BPEK buffer, 20 nM DNA): 8 [4, 19] μM
SMILES: CN(CCc1ccccc1)c1nc(CCN)nc2ccccc12

apparent Kd ([1]; BPEK buffer, 20 nM DNA, without calf thymus DNA, apparent): 2 µM
SMILES: NC(N)=NCCCS(=O)(=O)Nc1ccc(Nc2c3ccccc3nc3cc([N+](=O)[O-])ccc23)cc1

The remaining lines, values behind:

SMILES: CCCC(CCC)C1CCN(c2nc(CCN)nc3ccccc23)CC1
Kd ([1]; BPEK buffer, 20 nM DNA): 17 [7, 45] μM
binding ([2]; K+ (concentration not stated)): yes
binding ([3]; K+ (concentration not stated)): no

SMILES: CCc1nc(N(CCC(=O)NC(C)C)CCc2ccccc2)c2ccccc2n1
Kd ([1]; BPEK buffer, 20 nM DNA): 5 [1, 23] μM

SMILES: COCCN1CC2CCC1CN(c1nc(N(C)C)nc(C)c1C)C2 (stereo not drawn)
binding [4]: yes
apparent Kd [5]: 22 µM
apparent Kd [6]: > 140 µM
apparent Kd [7]: > 140 µM
apparent Kd [8]: > 140 µM
apparent Kd [9]: > 140 µM
apparent Kd [10]: > 140 µM

SMILES: Cc1cnccc1NCCNC(=O)c1cccc(CC2CCNCC2)c1
binding [13]: no
binding ([2]; 100 mM K+): yes
binding ([3]; 100 mM K+): no

SMILES: Cc1nc(NCCc2ccccc2)c2ccccc2n1
Kd ([1]; BPEK buffer, 20 nM DNA): 13 [7, 24] μM

Source: article PMC9202945 (2022)
